These compounds were tested against T1, human TREM2 (Homo sapiens, UniProt Q9NZC2) (assay: TREM2 agonist potency by cellular Syk phosphorylation (AlphaLisa) in HEK293T-hTREM2 cells). Conditions: Table D-2; HEK293 cells expressing human TREM2 and DAP12; pSyk AlphaLisa.
T1 construct: expressed in transfected cells; host or cells: HEK293T
Assay type: cell-based
Method: In vitro Measurement of Triggering Receptor Expressed on Myeloid Cells 2 activity using cellular phosphorylation of Spleen Tyrosine Kinase (“Syk”) Assays
Measurement of TREM2 agonist potency was done using a HEK cell line expressing human TREM2 and DAP12 (HEK293T-hTREM2 cells). Binding of small molecules to, and activation of, TREM2 increases the phosphorylation of Syk. The resultant levels of Syk phosphorylation are measured using a commercial AlphaLisa reagent kit. To perform the assay, HEK-hTREM2 cells were plated at 14,000 cells per well in a 384 well plate, in 25 µL of complete growth media and incubated at 37° C., 5% CO2 for 20-24 hours.
Prior to the assay, test compounds were diluted in the 384 well plates in assay buffer and allowed to equilibrate for 30 minutes. Growth media was removed from cell plates by inversion on blotting paper, and 25 μL of test articles in assay buffer was added to cells. Cells were incubated for 45 minutes at room temperature. After 45 minutes, assay buffer was removed and 10 μL of lysis buffer was added. Plates were shaken for 20 minutes at 350 RPM at room temperature. After complete lysis, AlphaLisa reagents were added to the lysate, and fluorescence intensity was measured using a Perkin Elmer Envision plate reader. Intensities were used to generate a standard curve, and % activation was calculated. Curve fitting was performed using Prism v9 software, log(agonist) vs response—variable slope (four parameters), and EC50s were calculated from the curve fit.
The results presented in Table D have been generated with the in vitro assay described above. This assay may be used to test any of the compounds described herein to assess and characterize a compound's ability to act as an agonist of TREM2.

T1 sequence (Q9NZC2 19-230): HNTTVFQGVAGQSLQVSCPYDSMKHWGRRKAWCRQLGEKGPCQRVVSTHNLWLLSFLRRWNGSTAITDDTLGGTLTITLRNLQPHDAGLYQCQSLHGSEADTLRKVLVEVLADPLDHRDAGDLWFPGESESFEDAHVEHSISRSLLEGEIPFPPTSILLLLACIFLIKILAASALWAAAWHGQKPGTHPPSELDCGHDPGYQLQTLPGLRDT
T1 sequence (O43914 22-113 partner): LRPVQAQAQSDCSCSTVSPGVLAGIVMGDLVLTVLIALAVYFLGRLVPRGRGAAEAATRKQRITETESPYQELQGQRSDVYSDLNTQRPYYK

Compound	EC50 [nM]
C[C@@H]1CN(c2nc(-c3ccc(Cl)cc3F)c3sc(N(C)C)nc3n2)C[C@H](c2cnn(C3CC3)c2)O1 (racemic) [Compound I-22, 7-(4-chloro-2-fluoro-phenyl)-N,N-dimethyl-5-[rac-(2S,6R)-2-(1-cyclopropylpyrazol-4-yl)-6-methyl-morpholin-4-yl]thiazolo[4,5-d]pyrimidin-2-amine]	50 to 500
CN(C)c1nc2nc(N3CCC(F)(F)C(c4cnn(C5CC5)c4)C3)nc(-c3ccc(C(F)(F)F)cc3F)c2s1 (racemic) [Compound I-185, 5-(3-(1-cyclopropyl-1H-pyrazol-4-yl)-4,4-difluoropiperidin-1-yl)-7-(2-fluoro-4-(trifluoromethyl)phenyl)-N,N-dimethylthiazolo[4,5-d]pyrimidin-2-amine]	50 to 500
Cc1cc(C2CN(c3nc(-c4ccc(C(F)(F)F)cc4F)c4sc(N(C)C)nc4n3)CCC2(F)F)ccn1 (racemic) [Compound I-188, 5-(4,4-difluoro-3-(2-methylpyridin-4-yl)piperidin-1-yl)-7-(2-fluoro-4-(trifluoromethyl)phenyl)-N,N-dimethylthiazolo[4,5-d]pyrimidin-2-amine]	50 to 500
Cc1cc(C2CCCN(c3nc(-c4ccc(C(F)(F)F)cc4F)c4sc(N(C)C)nc4n3)C2)ccn1 (racemic) [Compound I-196, 7-(2-fluoro-4-(trifluoromethyl)phenyl)-N,N-dimethyl-5-(3-(2-methylpyridin-4-yl)piperidin-1-yl)thiazolo[4,5-d]pyrimidin-2-amine]	50 to 500
CN(C)c1nc2nc(C3CCOC(c4ccc(=O)n(C)c4)C3)nc(-c3ccc(F)cc3F)c2s1 (racemic) [Compound I-288, 5-[4-[7-(2,4-difluorophenyl)-2-(dimethylamino)thiazolo[4,5-d]pyrimidin-5-yl]tetrahydropyran-2-yl]-1-methyl-pyridin-2-one]	≤ 50
CN(C)c1nc2nc([C@@H]3CCO[C@@H](c4ccc(=O)n(C)c4)C3)nc(-c3ccc(F)cc3F)c2s1 (racemic) [Compound I-289, 5-[(2R,4R)-4-[7-(2,4-difluorophenyl)-2-(dimethylamino)thiazolo[4,5-d]pyrimidin-5-yl]tetrahydropyran-2-yl]-1-methyl-pyridin-2-one]	50 to 500
CN(C)c1nc2nc([C@H]3CCO[C@@H](c4cnn(C5CC5)c4)C3)nc(-c3ccc(Cl)cc3F)c2s1 (single isomer, unassigned) [Compound I-79]	≤ 50
C[C@@H]1CN(c2nc(-c3ccc(F)cc3F)c3sc(N(C)C)nc3n2)C[C@H](c2cnn(C3CC3)c2)O1 (single isomer, unassigned) [Compound I-84]	≤ 50
CN(C)c1nc2nc([C@H]3CCO[C@@H](c4cnn(C5CC5)c4)C3)nc(-c3ccc(F)cc3F)c2s1 (single isomer, unassigned) [Compound I-89]	50 to 500
CNc1nc2nc(N3C[C@@H](C)O[C@@H](c4cnn(C5CC5)c4)C3)nc(-c3ccc(Cl)cc3F)c2s1 (single isomer, unassigned) [Compound I-94]	50 to 500
CC(=O)N(C)c1nc2nc(N3C[C@@H](C)O[C@@H](c4cnn(C5CC5)c4)C3)nc(-c3ccc(Cl)cc3F)c2s1 (single isomer, unassigned) [Compound I-99]	50 to 500
C[C@@H]1CN(c2nc(-c3ccc(Cl)cc3F)c3sc(N(C)CCO)nc3n2)C[C@H](c2cnn(C3CC3)c2)O1 (single isomer, unassigned) [Compound I-104]	50 to 500
C[C@@H]1CN(c2nc(-c3ccc(Cl)cc3F)c3sc(N(C)CCF)nc3n2)C[C@H](c2cnn(C3CC3)c2)O1 (single isomer, unassigned) [Compound I-114]	50 to 500
CCN(C)c1nc2nc(N3C[C@@H](C)O[C@@H](c4cnn(C5CC5)c4)C3)nc(-c3ccc(Cl)cc3F)c2s1 (single isomer, unassigned) [Compound I-119]	500 to 3000
CN(C)c1nc2nc([C@H]3CCO[C@@H](c4cnn(C5CC5)c4)C3)nc(-c3ccc(C(F)(F)F)cc3F)c2s1 (single isomer, unassigned) [Compound I-134]	50 to 500
CN(C)c1nc2nc([C@@H]3CCO[C@@H](c4cnn(C5CC5)c4)C3)nc(-c3ccc(C(F)(F)F)cc3F)c2s1 (single isomer, unassigned) [Compound I-135]	500 to 3000

Compound	EC50 [nM]
CN(C)c1nc2nc([C@H]3CCO[C@@H](c4cnn(C5CC5)c4)C3)nc(C3CCCCC3)c2s1 (single isomer, unassigned) [Compound I-174]	500 to 3000
CN(C)c1nc2nc(N3CCC(F)(F)[C@@H](c4cnn(C5CC5)c4)C3)nc(-c3ccc(C(F)(F)F)cc3F)c2s1 (single isomer, unassigned) [Compound I-199]	50 to 500
CN(C)c1nc2nc(N3CCC(F)(F)[C@H](c4cnn(C5CC5)c4)C3)nc(-c3ccc(C(F)(F)F)cc3F)c2s1 (single isomer, unassigned) [Compound I-200]	50 to 500
Cc1cc([C@H]2CN(c3nc(-c4ccc(C(F)(F)F)cc4F)c4sc(N(C)C)nc4n3)CCC2(F)F)ccn1 (single isomer, unassigned) [Compound I-202]	50 to 500
CN(C)c1nc2nc([C@@H]3CCO[C@@H](c4cnn(C5CC5)c4)C3)nc(C3CCCCC3)c2s1 (single isomer, unassigned) [Compound I-205]	500 to 3000
Fc1cc(C(F)(F)F)ccc1-c1nc([C@@H]2CCO[C@@H](c3cnn(C4CC4)c3)C2)nc2nc(N3CCC3)sc12 (single isomer, unassigned) [Compound I-248]	50 to 500
Fc1cc(C(F)(F)F)ccc1-c1nc([C@H]2CCO[C@@H](c3cnn(C4CC4)c3)C2)nc2nc(N3CCC3)sc12 (single isomer, unassigned) [Compound I-249]	≤ 50
Fc1cc(C(F)(F)F)ccc1-c1nc([C@@H]2CCO[C@@H](c3cnn(C4CC4)c3)C2)nc2nc(C3CC3)sc12 (single isomer, unassigned) [Compound I-278]	500 to 3000
Fc1cc(C(F)(F)F)ccc1-c1nc([C@H]2CCO[C@@H](c3cnn(C4CC4)c3)C2)nc2nc(C3CC3)sc12 (single isomer, unassigned) [Compound I-279]	≤ 50
Cc1nc2nc([C@@H]3CCO[C@@H](c4cnn(C5CC5)c4)C3)nc(-c3ccc(F)cc3F)c2s1 [Compound I-14, 5-[(2R,4R)-2-(1-cyclopropylpyrazol-4-yl)tetrahydropyran-4-yl]-7-(2,4-difluorophenyl)-2-methyl-thiazolo[4,5-d]pyrimidine]	500 to 3000
C[C@@H]1CN(c2nc(-c3ccc(Cl)cc3F)c3sc(N(C)CC4CC4)nc3n2)C[C@H](c2cnn(C3CC3)c2)O1 [Compound I-109, 7-(4-chloro-2-fluoro-phenyl)-N-(cyclopropylmethyl)-N-methyl-5-[(2S,6R)-2-(1-cyclopropylpyrazol-4-yl)-6-methyl-morpholin-4-yl]thiazolo[4,5-d]pyrimidin-2-amine]	50 to 500
C[C@@H]1CN(c2nc(-c3ccc(F)cc3F)c3c(ncn3C)n2)C[C@H](c2cnn(C3CC3)c2)O1 [Compound I-124, (2S,6R)-2-(1-cyclopropyl-1H-pyrazol-4-yl)-4-(6-(2,4-difluorophenyl)-7-methyl-7H-purin-2-yl)-6-methylmorpholine]	500 to 3000
CC(C)n1cc2c(-c3ccc(F)cc3F)nc(N3C[C@@H](C)O[C@@H](c4cnn(C5CC5)c4)C3)nc2n1 [Compound I-129, (2S,6R)-2-(1-cyclopropyl-1H-pyrazol-4-yl)-4-(4-(2,4-difluorophenyl)-2-isopropyl-2H-pyrazolo[3,4-d]pyrimidin-6-yl)-6-methylmorpholine]	50 to 500
CC(C)n1ncc2c(-c3ccc(F)cc3F)nc(N3C[C@@H](C)O[C@@H](c4cnn(C5CC5)c4)C3)nc21 [Compound I-139]	500 to 3000
C[C@@H]1CN(c2nc(-c3ccc(F)cc3F)c3c(n2)nc(N(C)C)n3C)C[C@H](c2cnn(C3CC3)c2)O1 [Compound I-144]	≤ 50

Same assay, conditions: Table D; HEK293 cells expressing human TREM2 and DAP12; pSyk AlphaLisa

Compound	EC50 [nM]
Cc1nc2nc([C@H]3CCO[C@@H](c4cnn(C5CC5)c4)C3)nc(-c3ccc(F)cc3F)c2s1 [Compound 4, 5-((2R,4S)-2-(1-cyclopropyl-1H-pyrazol-4-yl)tetrahydro-2H-pyran-4-yl)-7-(2,4-difluorophenyl)-2-methylthiazolo[4,5-d]pyrimidine]	50 to 500
Cc1nc2nc([C@H]3CCO[C@@H](c4cnn(C5CC5)c4)C3)nc(-c3ccc(F)cc3F)c2o1 [Compound 5, 5-((2R,4S)-2-(1-cyclopropyl-1H-pyrazol-4-yl)tetrahydro-2H-pyran-4-yl)-7-(2,4-difluorophenyl)-2-methyloxazolo[4,5-d]pyrimidine]	500 to 3000
Cc1cn2c(-c3ccc(Cl)cc3F)cc(N3CCOC(c4cnn(C5CC5)c4)C3)nc2n1 (stereo not shown) [Compound I-26, 4-[5-(4-chloro-2-fluoro-phenyl)-2-methyl-imidazo[1,2-a]pyrimidin-7-yl]-2-(1-cyclopropylpyrazol-4-yl)morpholine]	3000 to 100000
